Measurements as given in US10251889B2, “Substituted pyrazolo[1,5-a]pyrimidine compounds as Trk kinase inhibitors” (Array BioPharma, Inc., priority 2009, dated 2019).

These molecules were tested against Jak2 (human Jak2 kinase domain, amino acids 808-1132) (Homo sapiens (Human), UniProt O60674) (assay: Jak2 inhibition assay (Omnia kinase assay)). Settings: read-out: Jak2 Enzyme (% inhibition at 1000 nM), Table 1; 1000 nM test compound.
Jak2 (human Jak2 kinase domain, amino acids 808-1132), sequence (O60674 808-1132): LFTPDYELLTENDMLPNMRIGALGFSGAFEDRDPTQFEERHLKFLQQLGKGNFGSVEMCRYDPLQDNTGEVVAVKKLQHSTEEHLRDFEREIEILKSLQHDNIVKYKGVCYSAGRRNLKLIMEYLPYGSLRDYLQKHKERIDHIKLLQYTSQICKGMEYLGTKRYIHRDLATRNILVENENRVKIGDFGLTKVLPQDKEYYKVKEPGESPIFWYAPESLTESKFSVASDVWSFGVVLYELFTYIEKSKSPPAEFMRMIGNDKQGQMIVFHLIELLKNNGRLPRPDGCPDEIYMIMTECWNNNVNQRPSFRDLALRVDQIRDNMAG
Type: biochemical
Description: The assays described in Examples C, D, E and F for the determination of JAK1, JAK2, JAK3 and Tyk2 kinase activity, respectively, utilized the Omnia® Kinase fluorescence peptide substrate-based technology (Invitrogen). […] The reactions were therefore read at excitation 360 nm and emission was measured at 485 nm every 50 seconds for 45 minutes using a PerkinElmer EnVision Multilabel Plate Reader.
The final buffer conditions for each of the JAK1, JAK2, JAK3 and Tyk2 assays were as follows: 25 mM HEPES, pH 7.4, 10 mM MgCl2, 0.01% Triton X-100 and 1 mM DTT.
Two-μL aliquots of these were transferred to a fresh plate for a ten-fold intermediate dilution with assay buffer. Five-μL aliquots of the diluted compounds were then transferred to 20-μL of assay mixtures described in Examples C, D, E and F for a final concentration of DMSO of 2%. […] For each plate, percent of control (POC) values were calculated for each well according to the following equation:
where Xmax=Average Uninhibited Controls • Xmin=Average Background IC50's were estimated from the POC's using a standard 4-parameter logistic model:
where A=Minimum Y (Bottom Asymptote) • B=Maximum Y (Top Asymptote) • C=EC50 • D=Slope Factor • X=Compound Concentration (nM) • Y=POC
The IC50 is defined as the concentration of inhibitor at which the POC equals 50 for the fitted curve.
Compounds of Formula I were screened for their ability to inhibit Jak2 using the general enzyme inhibition assay method, in which the assay mixture contained 500 μM ATP, 10 μM Omnia® Y7 peptide (Catalog # IVGN KNZ3071C, Invitrogen Corporation, Carlsbad, Calif.) and 4 nM Jak2 in a total volume of 20 μL. Human Jak2 kinase domain comprising amino acids 808-1132 was purchased from Invitrogen Corporation, Carlsbad, Calif. (catalog # IVGN PV4210).
In the case of O=C(NOCC1CC1)c1cnn2ccc(N3CCC[C@@H]3c3cc(F)ccc3F)nc12 [Example 66, (R)—N-(cyclopropylmethoxy)-5-(2-(2,5-difluorophenyl)pyrrolidin-1-yl)pyrazolo[1,5-a]pyrimidine-3-carboxamide], the inhibition at 1 µM is reported as 24.7%.
In the case of CS(=O)(=O)NCCNC(=O)c1cnn2ccc(N3CCC[C@@H]3c3cc(F)ccc3F)nc12 [Example 46, (R)-5-(2-(2,5-difluorophenyl)pyrrolidin-1-yl)-N-(2-(methylsulfonamido)ethyl)pyrazolo[1,5-a]pyrimidine-3-carboxamide], the inhibition at 1 µM is reported as 13.8%.
C[C@H](NC(=O)c1cnn2ccc(N3[C@@H](c4cncc(F)c4)CC[C@@]3(C)CO)nc12)C(F)(F)F [Example 220, 5-((2S,5R)-5-(5-fluoropyridin-3-yl)-2-(hydroxymethyl)-2-methylpyrrolidin-1-yl)-N—((S)-1,1,1-trifluoropropan-2-yl)pyrazolo[1,5-a]pyrimidine-3-carboxamide] gave an inhibition at 1 µM of 15.2%.
Work on COc1ncc(F)cc1[C@H]1CCCN1c1ccn2ncc(C(=O)NCCCO)c2n1 [Example 148, (R)-5-(2-(5-fluoro-2-methoxypyridin-3-yl)pyrrolidin-1-yl)-N-(3-hydroxypropyl)pyrazolo[1,5-a]pyrimidine-3-carboxamide] yielded an inhibition at 1 µM of 44.3%.
In the case of CC(NC(=O)c1cnn2ccc(N3CCCC3c3cncc(F)c3)nc12)C1CC1 [Example 113, N-(1-cyclopropylethyl)-5-((R)-2-(5-fluoropyridin-3-yl)pyrrolidin-1-yl)pyrazolo[1,5-a]pyrimidine-3-carboxamide], the inhibition at 1 µM is reported as 44.6%.
With COc1ncc(F)cc1[C@H]1CCCN1c1ccn2ncc(C(=O)N3CC(C)(O)C3)c2n1 [Example 147, (R)-(5-(2-(5-fluoro-2-methoxypyridin-3-yl)pyrrolidin-1-yl)pyrazolo[1,5-a]pyrimidin-3-yl)(3-hydroxy-3-methylazetidin-1-yl)methanone] the inhibition at 1 µM was 0.9%.
Work on O=C(N[C@H]1CC[C@H](O)C1)c1cnn2ccc(N3CCC[C@@H]3c3cc(F)ccc3F)nc12 [Example 169, 5-((R)-2-(2,5-difluorophenyl)pyrrolidin-1-yl)-N-((1S,3S)-3-hydroxycyclopentyl)pyrazolo[1,5-a]pyrimidine-3-carboxamide] yielded an inhibition at 1 µM of 51.9%.
Work on CC(C)(C)[C@@H](CO)NC(=O)c1cnn2ccc(N3CCC[C@@H]3c3cc(F)ccc3F)nc12 [Example 180, 5-((R)-2-(2,5-difluorophenyl)pyrrolidin-1-yl)-N-((S)-1-hydroxy-3,3-dimethylbutan-2-yl)pyrazolo[1,5-a]pyrimidine-3-carboxamide] yielded an inhibition at 1 µM of -0.8%.
O=C(NOCCO)c1cnn2ccc(N3CCC[C@@H]3c3cc(F)cnc3Cl)nc12 [Example 225, (R)-5-(2-(2-chloro-5-fluoropyridin-3-yl)pyrrolidin-1-yl)-N-(2-hydroxyethoxy)pyrazolo[1,5-a]pyrimidine-3-carboxamide] showed an inhibition at 1 µM of 2.7%.
O=C(c1cnn2ccc(N3CCC[C@@H]3c3cncc(F)c3)nc12)N1CC[C@H](O)C1 [Example 128, (5-((R)-2-(5-fluoropyridin-3-yl)pyrrolidin-1-yl)pyrazolo[1,5-a]pyrimidin-3-yl)((S)-3-hydroxypyrrolidin-1-yl)methanone] showed an inhibition at 1 µM of 1.2%.
In the case of O=C(NC1(C(=O)O)CC1)c1cnn2ccc(N3CCC[C@@H]3c3cc(F)ccc3F)nc12 [Example 84, (R)-1-(5-(2-(2,5-difluorophenyl)pyrrolidin-1-yl)pyrazolo[1,5-a]pyrimidine-3-carboxamido)cyclopropanecarboxylic Acid], the inhibition at 1 µM is reported as 2.7%.
For O=C(NCCc1c[nH]cn1)c1cnn2ccc(N3CCC[C@@H]3c3cc(F)ccc3F)nc12 [Example 25, (R)—N-(2-(1H-imidazol-4-yl)ethyl)-5-(2-(2,5-difluorophenyl)pyrrolidin-1-yl)pyrazole [1,5-a]pyrimidine-3-carboxamide], the inhibition at 1 µM was 19.4%.
